Data as given in patent US6841684B2, “Imidiazoles having reduced side effects” (Allergan, Inc., priority 1997, dated 2005).
Like-named read-outs stand apart in the source and are kept apart here. Marks after values point to notes of the source that are not given here.

Assays:
[1] = target: T1, rat α2B (RNG gene) receptor (Rattus norvegicus, UniProt P19328); experiment: RSAT (Receptor Selection and Amplification Technology) assay, alpha 2B; format: cell-based; details: ratio of maximal effect to that of standard full agonist oxymetazoline
T1 construct: expressed in transfected cells; host or cells: NIH-3T3 cells, calcium phosphate cotransfection
T1 sequence (P19328 1-453): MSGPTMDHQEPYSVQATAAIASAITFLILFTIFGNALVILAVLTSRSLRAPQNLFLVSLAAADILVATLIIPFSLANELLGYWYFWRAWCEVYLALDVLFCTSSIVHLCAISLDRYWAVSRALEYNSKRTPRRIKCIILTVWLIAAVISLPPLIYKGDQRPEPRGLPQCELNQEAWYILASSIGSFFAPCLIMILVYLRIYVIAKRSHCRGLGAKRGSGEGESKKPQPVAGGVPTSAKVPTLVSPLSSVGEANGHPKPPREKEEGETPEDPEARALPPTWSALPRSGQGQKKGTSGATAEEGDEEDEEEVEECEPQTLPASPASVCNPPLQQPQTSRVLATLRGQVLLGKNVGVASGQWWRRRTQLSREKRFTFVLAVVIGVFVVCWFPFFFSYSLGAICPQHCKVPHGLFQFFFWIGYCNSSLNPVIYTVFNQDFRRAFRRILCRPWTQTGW
Summary of the method: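 NIH-3T3 cells transiently cotransfected with receptor, hybrid Gq/i5 protein and β-galactosidase marker were incubated with compound dilutions in triplicate for 72-96 hr at 37°. Proliferation was read as β-galactosidase activity (o-nitrophenyl-β-D-galactopyranoside, overnight at 30°, OD 420 nm). EC50 and efficacy were derived, the latter relative to a standard full agonist's maximal effect.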

[2] = system: cynomolgus monkeys with sustained elevated IOP; experiment: IOP lowering in conscious monkeys, eyes made hypertensive by argon laser photocoagulation; format: in vivo, cynomolgus monkey; details: Macaca fascicularis, topical, single 50 μl eye drop, up to 6 hours, read-out: Maximum % Decrease From Pretreatment Levels Hypertensive Eye (IOP); for inhibition in vivo at 0.1 %: ocular dose 0.1%; for inhibition in vivo at 0.3 %: ocular dose 0.3%; for inhibition in vivo at 1 %: ocular dose 1%
Source text: Measurements of IOP were made in fully conscious female cynomolgus monkeys weighing 3-4 kg with sustained elevated IOP that was produced in the right eye by argon laser photocoagulation of the trabecular meshwork. Animals were usable for experiments 2 months following surgery. During the experiments, monkeys sat in specially designed chairs (Primate Products, San Francisco), and were fed orange juice and fruit as needed. A 30R model Digilab pneumatonometer (Alcon, Tex.) was used to measure IOP.
Twenty five μl of an anesthetic (proparacaine) was topically applied to each monkey before IOP measurements to minimize ocular discomfort due to tonometry. Two baseline measurements were made prior to instillation of the drugs, followed by periodic measurements up to 6 hours post-instillation. The test compounds were administered unilaterally as a single 50 μl eye drop; the contralateral eyes received an equal volume of saline.

[3] = system: rat retinal ganglion cells after optic nerve injury; experiment: Calibrated rat optic nerve injury model, retinal ganglion cell numbers; format: in vivo
Source text: These models include light-induced photoreceptor degeneration in albino rat, as described in Wen et al, “Alpha2-adrenergic agonists induce basic fibroblast growth factor expression in photoreceptors in vivo and ameliorate light damage.” J. Neurosci. […] Invest. Ophthalmol. Vis. Sci. 37, 540,S114. […] Additionally commonly assigned and co-pending application, 08/496,292 filed on 28 Jun.

[4] = system: conscious cynomolgus monkeys; experiment: Sedation score during the IOP experiments; format: in vivo, cynomolgus monkey; parameters: key to Sedation (0-4): 0=alert, typical vocalization, movement, etc.; 1=calm, less movement; 2=slightly sedated, some vocalization, responsive to stimulation; 3=sedated, no vocalization, some response to stimulation; 4=asleep; details: for sedation (in words): ocular administration, monkeys
Experimental: At the same time, sedation was measured and assessed according to the following score: 0=alert, typical vocalization, movement, etc.; 1=calm, less movement; 2=slightly sedated, some vocalization, responsive to stimulation; 3=sedated, no vocalization, some response to stimulation; 4=asleep.

[5] = system: conscious cynomolgus monkeys; experiment: Cardiovascular side effects (blood pressure, heart rate) after i.v. administration; format: in vivo, cynomolgus monkey; details: up to 6 hours, + with * = increase from base levels
Source text: Cardiovascular measurements were made in a different group of monkeys using a BP 100S automated sphygmomanometer (Nippon Colin,. Japan).

[6] = system: rats with ligation of two spinal nerves; experiment: Spinal nerve ligation model of neuropathic pain, reversal of tactile allodynia; format: in vivo, rat; details: for Reversal of Tactile Allodynia (%): 30 minutes after dosing
Source text: (§1) Alleviation of pain including neuropathic pain is another example of a disorder in which the compounds of the invention are useful and advantageous since pain is alleviated without undesirable side effects. […] (See, for example, Kim, S. and Chung, J. “An experimental model for peripheral neuropathy produced by segmental spinal nerve ligation in the rat.” Pain 50 pp. 355-363 (1992).) Following ligation of two spinal nerves, the animals develop a sensitivity to normally non-painful stimuli such as touch. The ability of alpha2 compounds to reverse this sensitivity, called allodynia, was tested 30 minutes after dosing by either intrathecal or intraperitoneal administration. The sedative activity of each compound was also measured using an activity chamber.

[7] = system: rats; experiment: Sedative activity measured using an activity chamber; format: in vivo, rat; details: for Sedation (%): 30 minutes after dosing; for sedation (in words): intrathecal or intraperitoneal, rats
Source text: as §1

Cl.O=C1c2ccsc2CCC1Cc1c[nH]cn1 (stereo not drawn) [Example B-9b, 5-(1H-imidazol-4(5)-ylmethyl)-6,7-dihydro-5H-benzo[b]thiophen-4-one, hydrogen chloride salt]
Intrinsic Activity Relative to Oxymetazoline, Alpha 2B [1]: 0.68 | inhibition in vivo at 0.1 % ([2]; 6 h): 18.7 ± 5.5% | inhibition in vivo at 0.3 % ([2]; 6 h): 26.9 ± 6.1% | Retinal Ganglion Cell Numbers at 2 Weeks Post-Injury ([3]; 0.5 mg/kg i.p., vehicle control 33 ± 8): 73 ± 12 cells/microscopic field | neuroprotection (in words) ([3]; calibrated rat optic nerve injury model): neuroprotective | Sedation (0-4) ([4]; ocular dose 0.1%): 0 | Sedation (0-4) ([4]; ocular dose 0.3%): 0 | Maximum % Decrease From Pretreatment Levels, Heart Rate ([5]; i.v. 500 μg/kg): +20.2 ± 3.4* % | Maximum % Decrease From Pretreatment Levels, Mean Arterial Blood Pressure ([5]; i.v. 500 μg/kg): 2.8 ± 1.8%

Clc1cccc(Cl)c1N=C1NCCN1 [clonidine, reference compound]
Reversal of Tactile Allodynia (%) ([6]; intrathecal 0.1 μg): 20* % | Reversal of Tactile Allodynia (%) ([6]; intrathecal 1 μg): 96* % | inhibition in vivo at 0.3 % ([2]; 6 h): 41 ± 5% | sedation (in words) [4]: caused sedation | Sedation (0-4) ([4]; ocular dose 0.1%): 1 | Sedation (0-4) ([4]; ocular dose 0.3%): 2 | Maximum % Decrease From Pretreatment Levels, Heart Rate ([5]; i.v. 17 μg/kg): 32 ± 4% | Maximum % Decrease From Pretreatment Levels, Mean Arterial Blood Pressure ([5]; i.v. 17 μg/kg): 29 ± 7% | Maximum % Decrease From Pretreatment Levels, Heart Rate ([5]; i.v. 50 μg/kg): 50 ± 5% | Maximum % Decrease From Pretreatment Levels, Mean Arterial Blood Pressure ([5]; i.v. 50 μg/kg): 35 ± 5% | Sedation (%) ([7]; intrathecal 1 μg): 15% | Sedation (%) ([7]; intrathecal 10 μg): 60* % | sedation (in words) [7]: cause sedation at doses only slightly higher than their anti-allodynic doses

Cl.O=C1C2=C(CCCC2)CCC1Cc1c[nH]cn1 (stereo not drawn) [Example N-1, 2-(1H-imidazol-4(5)-ylmethyl)-3,4,5,6,7,8-hexahydro-2H-naphthalen-1-one, hydrochloride salt]
Reversal of Tactile Allodynia (%) ([6]; intraperitoneal 3 mg/kg): 3% | Reversal of Tactile Allodynia (%) ([6]; intraperitoneal 30 mg/kg): 41* % | Reversal of Tactile Allodynia (%) ([6]; intrathecal 3 μg): 13% | Reversal of Tactile Allodynia (%) ([6]; intrathecal 30 μg): 64* % | alleviation of allodynia (in words) ([6]; intrathecal or intraperitoneal, rats): able to alleviate the allodynia | Intrinsic Activity Relative to Oxymetazoline, Alpha 2B [1]: 0.75 | Sedation (%) ([7]; intraperitoneal 10,000 mg/kg): 0% | Sedation (%) ([7]; intrathecal 30 μg): 0% | Sedation (%) ([7]; intrathecal 300 μg): 0% | sedation (in words) [7]: without causing sedation, even at very high doses

c1ccc2sc(Cc3c[nH]cn3)cc2c1 [Example C-9, 4(5)-benzo[b]thiophen-2-ylmethyl-1H-imidazole]
Intrinsic Activity Relative to Oxymetazoline, Alpha 2B [1]: 0.88 | inhibition in vivo at 0.3 % [2]: 13.7 ± 4.5% | inhibition in vivo at 1 % [2]: 25.1 ± 4.9% | Sedation (0-4) ([4]; ocular dose 0.3%): 0 | Sedation (0-4) ([4]; ocular dose 1%): 0 | Maximum % Decrease From Pretreatment Levels, Heart Rate ([5]; i.v. 3.0 μg/kg): 9.4 ± 3.0% | Maximum % Decrease From Pretreatment Levels, Mean Arterial Blood Pressure ([5]; i.v. 3.0 μg/kg): 5.0 ± 2.3% | Maximum % Decrease From Pretreatment Levels, Heart Rate ([5]; i.v. 17 μg/kg): +9.4 ± 1.8* % | Maximum % Decrease From Pretreatment Levels, Mean Arterial Blood Pressure ([5]; i.v. 17 μg/kg): 1.0 ± 4.1% | Maximum % Decrease From Pretreatment Levels, Heart Rate ([5]; i.v. 50 μg/kg): 16 ± 3.2% | Maximum % Decrease From Pretreatment Levels, Mean Arterial Blood Pressure ([5]; i.v. 50 μg/kg): 0.1 ± 3.8% | Maximum % Decrease From Pretreatment Levels, Heart Rate ([5]; i.v. 500 μg/kg): 5.9 ± 3.3% | Maximum % Decrease From Pretreatment Levels, Mean Arterial Blood Pressure ([5]; i.v. 500 μg/kg): 6.0 ± 2.2%

CN1CCOc2ccc(N=C3NCCN3)cc21 [Example E-1, imidazolidin-2-ylidene-(4-methyl-3,4-dihydro-2H-benzo[1,4]oxazin-6-yl) amine]
Intrinsic Activity Relative to Oxymetazoline, Alpha 2B [1]: 0.83 | inhibition in vivo at 0.3 % ([2]; 6 h): 25 ± 4% | inhibition in vivo at 1 % ([2]; 6 h): 27 ± 3% | Sedation (0-4) ([4]; ocular dose 0.3%): 0 | Sedation (0-4) ([4]; ocular dose 1%): 0 | Maximum % Decrease From Pretreatment Levels, Heart Rate ([5]; i.v. 17 μg/kg): 11 ± 4% | Maximum % Decrease From Pretreatment Levels, Mean Arterial Blood Pressure ([5]; i.v. 17 μg/kg): 7 ± 4% | Maximum % Decrease From Pretreatment Levels, Heart Rate ([5]; i.v. 50 μg/kg): 14 ± 5% | Maximum % Decrease From Pretreatment Levels, Mean Arterial Blood Pressure ([5]; i.v. 50 μg/kg): 7 ± 2% | Maximum % Decrease From Pretreatment Levels, Heart Rate ([5]; i.v. 167 μg/kg): 11 ± 5% | Maximum % Decrease From Pretreatment Levels, Mean Arterial Blood Pressure ([5]; i.v. 167 μg/kg): 9 ± 4%

Brc1c(NC2=NCCN2)ccc2nccnc12 [brimonidine, reference compound]
Reversal of Tactile Allodynia (%) ([6]; intraperitoneal 3 mg/kg): 0% | Reversal of Tactile Allodynia (%) ([6]; intraperitoneal 30 mg/kg): 37* % | inhibition in vivo at 0.1 % ([2]; 6 h): 25 ± 3% | inhibition in vivo at 0.3 % ([2]; 6 h): 40 ± 4% | sedation (in words) [4]: caused sedation | Sedation (0-4) ([4]; ocular dose 0.1%): 1 | Sedation (0-4) ([4]; ocular dose 0.3%): 2 | Maximum % Decrease From Pretreatment Levels, Heart Rate ([5]; i.v. 17 μg/kg): 52 ± 3% | Maximum % Decrease From Pretreatment Levels, Mean Arterial Blood Pressure ([5]; i.v. 17 μg/kg): 36 ± 3% | Maximum % Decrease From Pretreatment Levels, Heart Rate ([5]; i.v. 50 μg/kg): 54 ± 3% | Maximum % Decrease From Pretreatment Levels, Mean Arterial Blood Pressure ([5]; i.v. 50 μg/kg): 37 ± 5% | Sedation (%) ([7]; intraperitoneal 30 mg/kg): 24% | Sedation (%) ([7]; intraperitoneal 300 mg/kg): 67* % | sedation (in words) [7]: cause sedation at doses only slightly higher than their anti-allodynic doses

Cc1[nH]cnc1Cc1ccc2c(c1)OCCO2 [M, 4-(2,3-dihydrobenzo[1,4]dioxin-6-ylmethyl)-5-methyl-1H-imidazole]
Intrinsic Activity Relative to Oxymetazoline, Alpha 2B [1]: 0.97 | inhibition in vivo at 1 % ([2]; 6 h): 22.5 ± 5.4% | Sedation (0-4) ([4]; ocular dose 1%): 0 | Maximum % Decrease From Pretreatment Levels, Heart Rate ([5]; i.v. 500 μg/kg): 5.5 ± 1.9% | Maximum % Decrease From Pretreatment Levels, Mean Arterial Blood Pressure ([5]; i.v. 500 μg/kg): 0.8 ± 2.3%

c1csc(Cc2c[nH]cn2)c1 [Example C-2, 4(5)-thiophen-2-ylmethyl-1H-imidazole]
Intrinsic Activity Relative to Oxymetazoline, Alpha 2B [1]: 1.3 | inhibition in vivo at 1 % [2]: 29.6 ± 5.5% | Sedation (0-4) ([4]; ocular dose 1%): 0 | Maximum % Decrease From Pretreatment Levels, Heart Rate ([5]; i.v. 500 μg/kg): 6.5 ± 2.9% | Maximum % Decrease From Pretreatment Levels, Mean Arterial Blood Pressure ([5]; i.v. 500 μg/kg): 6.6 ± 1.7%

Cc1ccc(Cc2c[nH]cn2)s1 [Example C-3, 4(5)-(5-methylthiophen-2-ylmethyl)-1H-imidazole]
Intrinsic Activity Relative to Oxymetazoline, Alpha 2B [1]: 0.88 | inhibition in vivo at 0.3 % [2]: 20.6 ± 4.8% | inhibition in vivo at 1 % [2]: 25 ± 6.4% | Sedation (0-4) ([4]; ocular dose 0.3%): 0 | Sedation (0-4) ([4]; ocular dose 1%): 0 | Maximum % Decrease From Pretreatment Levels, Heart Rate ([5]; i.v. 500 μg/kg): 10.6 ± 3.4% | Maximum % Decrease From Pretreatment Levels, Mean Arterial Blood Pressure ([5]; i.v. 500 μg/kg): 2.3 ± 2.7%

c1ccc2c(c1)CC[C@H](Cc1c[nH]cn1)C2 [Example J-2, (S)-4(5)-(1,2,3,4-tetrahydronaphthalen-2-ylmethyl)-1H-imidazole]
Intrinsic Activity Relative to Oxymetazoline, Alpha 2B [1]: 0.8 | inhibition in vivo at 0.03 % ([2]; 6 h, ocular dose 0.03%): 12.4 ± 3.7% | Sedation (0-4) ([4]; ocular dose 0.03%): 0 | Sedation (0-4) ([4]; ocular dose 0.3%): 0 | Maximum % Decrease From Pretreatment Levels, Heart Rate ([5]; i.v. 500 μg/kg): 6.4 ± 3.3% | Maximum % Decrease From Pretreatment Levels, Mean Arterial Blood Pressure ([5]; i.v. 500 μg/kg): +0.6 ± 3.1* %
